Results: publication PMC12175894 (Science Advances, 2025)
Positions count from the first letter of the chain named. Entries after “also recorded” stand apart in the source; their conditions may differ. Where two headings read alike, the source gives them in different places.

Legend:
neurotensin NTS2 = neurotensin NTS2 (Homo sapiens, UniProt O95665); assay: Radioligand displacement, [3H]NT(8-13)
orexin OX2 = orexin OX2 (Homo sapiens, UniProt O43614); assay: Radioligand displacement, [3H]EMPA
5-HT1AR F112^3.28W = target: T1, 5-HT1AR F112^3.28W (Homo sapiens, UniProt P08908, F112W); assay: GloSensor cAMP accumulation in HEK293AΔGi/o; format: cell-based; conditions: read-out: Emax [% ± SEM], cAMP accumulation
T1 sequence (P08908 1-422 F112W): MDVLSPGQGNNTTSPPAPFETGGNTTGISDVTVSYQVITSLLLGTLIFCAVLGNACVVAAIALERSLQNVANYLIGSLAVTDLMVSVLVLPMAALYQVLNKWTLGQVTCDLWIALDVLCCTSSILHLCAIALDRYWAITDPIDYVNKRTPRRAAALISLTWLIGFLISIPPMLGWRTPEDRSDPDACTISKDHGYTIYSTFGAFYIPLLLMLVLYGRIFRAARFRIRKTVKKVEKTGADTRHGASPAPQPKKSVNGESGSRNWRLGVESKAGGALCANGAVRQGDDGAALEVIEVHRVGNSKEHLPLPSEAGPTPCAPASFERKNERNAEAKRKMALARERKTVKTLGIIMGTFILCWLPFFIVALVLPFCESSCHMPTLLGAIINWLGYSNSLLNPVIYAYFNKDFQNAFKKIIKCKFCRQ

5-HT1AR + Gαi1 [1] = target: T2, 5-HT1AR + Gαi1 (Homo sapiens, UniProt P08908); assay: cell-based
[2] = target: T3, 5-HT1AR F112^3.28W + M92^2.60F (Homo sapiens, UniProt P08908, F112W/M92F); assay: GloSensor cAMP assay in HEK293A cells; format: cell-based
T3 sequence (P08908 1-422 M92F/F112W): T1 sequence (P08908 1-422 F112W) with M92F

5-HT2AR = target: T4, 5-HT2AR (Homo sapiens, UniProt P28223); assay: Radioligand competition, displacement of [3H]ketanserin; format: binding
T4 construct: whole cells for IP-One

adrenergic α2C = adrenergic α2C (Homo sapiens, UniProt P18825); assay: Radioligand displacement, [3H]RX821002
5-HT1AR = target: T5, 5-HT1AR (Homo sapiens, UniProt P08908); assay: Complementation-based β-arrestin 2 recruitment PathHunter assay; conditions: for Emax: relative to serotonin
T5 sequence (P08908 1-422): T1 sequence (P08908 1-422 F112W) with W112F

opioid µOR = opioid µOR (Homo sapiens, UniProt P35372); assay: Radioligand displacement, [3H]diprenorphine
5-HT1AR + Gαi1 [3] = system: 5-HT1AR + Gαi1
5-HT1AR + Gαi1 [4] = target: T2, 5-HT1AR + Gαi1
5-HT1AR Y96^2.64A = target: T6, 5-HT1AR Y96^2.64A (Homo sapiens, UniProt P08908, Y96A); assay: Radioligand competition, displacement of [3H]WAY100635; format: binding; conditions: for decrease of affinity when Y96^2.64 and Q97^2.65 were replaced by alanine: Y96A and Q97A mutants vs WT
T6 sequence (P08908 1-422 Y96A): T1 sequence (P08908 1-422 F112W) with Y96A, W112F

mice = assay: Conditioned place preference; format: in vivo, mouse; conditions: 10 mg/kg i.p.
5-HT1AR KO mice = assay: 52°C hot plate in 5-HT1AR KO mice; format: in vivo, mouse
[5] = Metabolic stability with rat liver microsomes; format: in vitro ADME
[6] = read-out: Emax, β-arrestin 2 recruitment, PathHunter, elevated GRK2
[7] = read-out: Emax, β-arrestin 2 recruitment, PathHunter, native GRK2

T4 sequence (P28223 whole entry): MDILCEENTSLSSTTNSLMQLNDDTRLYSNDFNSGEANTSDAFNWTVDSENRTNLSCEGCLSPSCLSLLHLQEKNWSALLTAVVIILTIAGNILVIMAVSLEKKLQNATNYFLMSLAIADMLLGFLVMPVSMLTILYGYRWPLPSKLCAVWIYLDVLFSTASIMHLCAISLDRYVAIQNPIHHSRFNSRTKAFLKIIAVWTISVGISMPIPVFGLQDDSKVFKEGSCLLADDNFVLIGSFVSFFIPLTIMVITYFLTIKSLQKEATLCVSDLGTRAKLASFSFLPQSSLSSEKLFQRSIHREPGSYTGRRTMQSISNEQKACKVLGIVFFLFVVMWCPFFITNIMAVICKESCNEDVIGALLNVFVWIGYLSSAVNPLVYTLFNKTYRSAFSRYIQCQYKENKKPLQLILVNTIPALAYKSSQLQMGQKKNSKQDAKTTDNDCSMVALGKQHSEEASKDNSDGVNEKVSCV
opioid µOR, sequence (P35372 whole entry): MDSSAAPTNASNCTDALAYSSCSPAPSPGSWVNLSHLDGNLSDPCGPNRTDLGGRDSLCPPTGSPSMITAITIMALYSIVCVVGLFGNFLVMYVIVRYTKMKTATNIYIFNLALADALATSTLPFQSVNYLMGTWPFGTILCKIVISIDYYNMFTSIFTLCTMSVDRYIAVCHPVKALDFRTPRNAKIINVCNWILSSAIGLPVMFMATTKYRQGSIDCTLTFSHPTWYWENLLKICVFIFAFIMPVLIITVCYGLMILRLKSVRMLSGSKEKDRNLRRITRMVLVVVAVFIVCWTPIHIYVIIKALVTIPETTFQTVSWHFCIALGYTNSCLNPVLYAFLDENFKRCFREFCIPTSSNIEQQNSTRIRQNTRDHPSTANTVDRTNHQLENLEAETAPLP
neurotensin NTS2, sequence (O95665 whole entry): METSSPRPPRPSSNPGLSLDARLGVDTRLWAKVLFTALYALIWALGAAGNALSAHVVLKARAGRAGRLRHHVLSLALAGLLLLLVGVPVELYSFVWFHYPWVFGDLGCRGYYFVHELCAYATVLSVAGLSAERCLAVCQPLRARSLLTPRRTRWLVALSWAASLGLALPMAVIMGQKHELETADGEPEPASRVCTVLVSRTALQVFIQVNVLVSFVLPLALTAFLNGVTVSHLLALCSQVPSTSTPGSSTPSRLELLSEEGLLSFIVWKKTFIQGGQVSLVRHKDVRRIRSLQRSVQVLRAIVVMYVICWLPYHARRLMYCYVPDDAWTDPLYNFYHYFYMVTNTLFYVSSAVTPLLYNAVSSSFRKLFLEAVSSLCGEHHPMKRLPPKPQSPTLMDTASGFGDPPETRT
orexin OX2, sequence (O43614 whole entry): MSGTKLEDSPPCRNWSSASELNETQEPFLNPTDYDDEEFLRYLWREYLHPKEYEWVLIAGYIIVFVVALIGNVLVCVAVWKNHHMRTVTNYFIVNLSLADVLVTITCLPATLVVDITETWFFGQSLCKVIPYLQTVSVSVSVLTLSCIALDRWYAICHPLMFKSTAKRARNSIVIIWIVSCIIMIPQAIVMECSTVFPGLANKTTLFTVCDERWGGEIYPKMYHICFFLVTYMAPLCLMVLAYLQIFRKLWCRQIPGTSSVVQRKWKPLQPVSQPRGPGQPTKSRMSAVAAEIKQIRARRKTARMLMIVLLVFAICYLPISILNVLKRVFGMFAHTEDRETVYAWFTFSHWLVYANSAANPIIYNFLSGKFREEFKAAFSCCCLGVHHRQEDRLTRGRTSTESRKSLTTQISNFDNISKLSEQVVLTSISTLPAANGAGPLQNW
adrenergic α2C, sequence (P18825 whole entry): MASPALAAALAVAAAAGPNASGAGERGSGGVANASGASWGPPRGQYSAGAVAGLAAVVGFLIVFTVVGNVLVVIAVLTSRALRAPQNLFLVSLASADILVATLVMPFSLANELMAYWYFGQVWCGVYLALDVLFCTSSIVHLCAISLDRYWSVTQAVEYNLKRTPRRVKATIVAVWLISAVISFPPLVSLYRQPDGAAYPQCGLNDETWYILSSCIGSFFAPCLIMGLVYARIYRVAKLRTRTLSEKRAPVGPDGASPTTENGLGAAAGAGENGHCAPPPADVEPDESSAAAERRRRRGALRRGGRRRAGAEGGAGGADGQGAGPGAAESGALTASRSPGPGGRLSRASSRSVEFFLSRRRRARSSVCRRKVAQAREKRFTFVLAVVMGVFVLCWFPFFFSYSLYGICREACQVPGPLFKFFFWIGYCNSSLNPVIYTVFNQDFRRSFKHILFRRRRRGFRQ
T2 sequence (P08908 whole entry): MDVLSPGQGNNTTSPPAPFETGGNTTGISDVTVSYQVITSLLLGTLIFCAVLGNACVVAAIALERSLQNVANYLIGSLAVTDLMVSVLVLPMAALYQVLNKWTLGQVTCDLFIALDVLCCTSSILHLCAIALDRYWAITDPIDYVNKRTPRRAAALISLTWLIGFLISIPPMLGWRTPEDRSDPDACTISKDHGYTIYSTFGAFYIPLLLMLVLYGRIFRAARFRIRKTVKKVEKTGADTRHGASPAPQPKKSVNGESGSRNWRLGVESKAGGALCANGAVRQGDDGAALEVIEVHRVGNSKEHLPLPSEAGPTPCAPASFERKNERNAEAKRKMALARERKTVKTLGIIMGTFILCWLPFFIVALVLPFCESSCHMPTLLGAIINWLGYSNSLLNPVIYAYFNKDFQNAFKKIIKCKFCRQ
T2 sequence (P63096 2-354 partner limits assumed): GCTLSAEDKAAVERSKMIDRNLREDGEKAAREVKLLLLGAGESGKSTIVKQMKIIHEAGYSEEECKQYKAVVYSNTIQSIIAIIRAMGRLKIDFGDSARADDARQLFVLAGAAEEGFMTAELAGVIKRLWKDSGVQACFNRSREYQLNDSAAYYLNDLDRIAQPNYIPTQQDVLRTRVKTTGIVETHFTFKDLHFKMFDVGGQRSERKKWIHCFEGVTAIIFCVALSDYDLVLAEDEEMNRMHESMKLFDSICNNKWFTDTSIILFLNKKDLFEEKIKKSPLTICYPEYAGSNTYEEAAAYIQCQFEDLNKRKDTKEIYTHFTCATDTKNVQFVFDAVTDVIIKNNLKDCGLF

Q: Which Ki (neurotensin NTS2; Ki [nM ± SD]) does the source give for `COc1ccccc1OCCNCCCOc1ccc2c(c1)NC(=O)CO2` [ST171] here?
A: The Ki was greater than 50000 nM.

Q: And the Ki (neurotensin NTS2; pKi)?
A: Its Ki is greater than 50100 nM.

Q: What about the Ki (orexin OX2; Ki [nM ± SD]) of the same compound?
A: The Ki was greater than 50000 nM.

Q: What about the Ki (orexin OX2; pKi) of the same compound?
A: The Ki was greater than 50100 nM.

Q: What about the Emax (5-HT1AR F112^3.28W) of the same compound?
A: The Emax was less than 5%.

Q: And the EC50 (5-HT1AR + Gαi1 [1])?
A: The EC50 was 0.0025 ± 0.0007 µM.

Q: What about the Emax ([2]; HEK293-A, read-out: Emax [%±SEM], inhibition of cAMP accumulation) of the same compound?
A: Its Emax is 77 ± 5%.

Q: What about the EC50 ([2]; HEK293A, GloSensor, F112W + M92F; read-out: EC50 left [nM±SEM], inhibition of cAMP accumulation) of the same compound?
A: Its EC50 is 1.7 ± 0.4 nM.

Q: What about the Ki (5-HT2AR; 5-HT2A, read-out: pKi (converted)) of the same compound?
A: Its Ki is 260 nM.

Q: And the Ki (5-HT2AR; 5-HT2AR, HEK 293T membranes, read-out: Ki [nM ± SEM])?
A: The Ki was 280 ± 30 nM.

Q: And the Ki (adrenergic α2C; Ki [nM ± SD])?
A: Its Ki is 28 ± 12 nM.

Q: And the Ki (adrenergic α2C; pKi)?
A: Its Ki is 25.9 nM.

Q: And the EC50 (5-HT1AR)?
A: Its EC50 is 0.0055 ± 0.0014 µM.

Q: And the Emax (5-HT1AR; [6])?
A: Its Emax is 15%.

Q: And the Emax (5-HT1AR; [7])?
A: Its Emax is less than 5%.

Q: And the Ki (opioid µOR; Ki [nM ± SD], µOR)?
A: Its Ki is 8600 ± 2100 nM.

Q: What about the Ki (opioid µOR; Ki, opioid receptor family) of the same compound?
A: The Ki was greater than 5000 nM.

Q: And the Ki (opioid µOR; pKi, µOR)?
A: The Ki was 8430 nM.

Q: What about the Emax (5-HT1AR + Gαi1 [3]) of the same compound?
A: Its Emax is 57 to 80%.

Q: And the Emax (5-HT1AR + Gαi1 [4])?
A: The Emax was 68 ± 3%.

Q: And the Ki (5-HT1AR Y96^2.64A; 5-HT1AR Y96A, HEK 293T membranes, read-out: Ki [nM ± SEM])?
A: Its Ki is 63 nM.

Q: What about the “decrease of affinity when Y96^2.64 and Q97^2.65 were replaced by alanine” value (5-HT1AR Y96^2.64A) of the same compound?
A: The value was “more than 150 fold”.

Q: What about the “conditioned place preference (rewarding properties)” value (mice) of the same compound?
A: Its value is “rewarding; also recorded: induces CPP”.

Q: And the “response latency, hot plate in 5-HT1AR KO mice” value (5-HT1AR KO mice; 10 mg/kg)?
A: Its value is “no significant antinociceptive effect”.

Q: What about the intact substrate remaining ([5]; after 1 h incubation) of the same compound?
A: Its intact substrate remaining is “more than 70%”.

Q: What about the intact substrate remaining ([5]; after 3 h incubation) of the same compound?
A: The intact substrate remaining was greater than 45%.

Q: What does the source list for `Cc1ccc(CNCC2(F)CCN(C(=O)c3ccc(F)c(Cl)c3)CC2)nc1` [befiradol, reference compound]?
A: Emax ([2]; HEK293-A; read-out: Emax [%±SEM], inhibition of cAMP accumulation): 92 ± 7%; Ki (5-HT2AR): 15000 nM; increase in efficacy with elevated vs native GRK2 (5-HT1AR; PathHunter β-arrestin 2): approximately 30%; increase of potency with elevated vs native GRK2 (5-HT1AR; PathHunter β-arrestin 2): 4 fold; Emax (5-HT1AR; [6]): 96 ± 3%; Emax (5-HT1AR; [7]): 67%; decrease of affinity when Y96^2.64 and Q97^2.65 were replaced by alanine (5-HT1AR Y96^2.64A): 4.2- to 13.3 fold; response latency, hot plate in 5-HT1AR KO mice (5-HT1AR KO mice; 1.0 mg/kg): no significant antinociceptive effect
